# Source: patent US10653822B2, “Drug delivery devices and methods of making and using same” (The Administrators of the Tulane Educational Fund, priority 2012, dated 2020)
# Where two headings read alike, the source gives them in different places.
# Tests used:
# [1] = cited from earlier work
# [2] = system: COS-1 cells; assay: Cytotoxicity of drug released into culture medium over timed intervals
# [3] = In vitro release of 5-FU from double-layered breath figure PLGA films in PBS; assay type: physicochemical
# Description: IN VITRO RELEASE CHARACTERISTICS OF DOUBLE-LAYERED 5-FU-PLGA FILM. […] At specific time intervals, a 1 ml aliquot of the solution was withdrawn and 1 ml of fresh PBS was added to the vial to maintain constant volume. The pH of the medium was monitored during the course of the experiment to verify that the solution was buffered adequately during polymer degradation. Each aliquot was centrifuged to remove any possible debris from the degraded polymer components that could interfere with the absorbance readings and drug release was quantified through the absorbance measured at 266 nm. A standard calibration plot of 5-FU absorbance was constructed to correlate absorbance with drug release levels. All experiments were conducted with triplicate polymer samples.
# [4] = system: blood-brain barrier (BBB) in vitro model; settings: coculture with inserts; cited from earlier work
# [5] = Tissue distribution of FF and FA after oral fenofibrate in mice (HPLC); assay type: in vivo; settings: for concentration at 4 weeks: Balb c/nude, mouse, oral, 50 mg/kg/day
# Description: ANIMAL STUDIES. […] according to the standard ethically accepted procedure, and the following organs/body fluids were collected: blood, urine, liver, kidneys, spleen, heart, lungs, intact brain and intracranial tumor tissue.
# (§1) HIGH PERFORMANCE LIQUID CHROMATOGRAPHY. […] DAD wavelength was set to 285 nm.
# For body fluids concentrations are calculated per ml of the body fluid, and in solid tissues per mg of the tissue.
# [6] = system: LN-229 cells; assay: Subcellular distribution of FF and FA in LN-229 membrane and cytosolic fractions (HPLC); settings: per 10^6 LN-229 cells, 25 μM fenofibrate, 24 hrs
# Description: (§2) Blood plasma, cell culture media, cellular and tissue lysates, were deproteinized by adding 150 μl of acetonitrile to 150 μl of sample, mixed well and centrifuged (15 000 g, 5 min). […] For the subcellular fractionation, subconfluent monolayer cultures were washed in phosphate buffered saline (PBS) twice, then cells were scraped and lysed in 2% sodium dodecyl sulphate (SDS) in PBS. The lysates were sonicated on ice and centrifuged (15 000 g, 5 min). Finally, 150 μl of the supernatant was mixed with the equal volume of acetonitrile, filtered through 0.22 μm centrifuge filter (Sigma) and analyzed by High Performance Liquid Chromatography (HPLC).
# (§3) All data were obtained from the Agilent Technologies 1100 apparatus equipped with a line degasser, binary pump (high pressure mixer), autosampler, column thermostat and Diode Array Detector (DAD). The YMCBase, 3 μm 4.6×150 mm analytical column was used and solvent A—50 mM acetic acid in water or solvent B—acetonitrile, with isocratic flow 60%. Flow rate was set to 1 ml/min, column temperature was 20° C., and 5 μl of 0.22 μm filtered sample was injected. DAD wavelength was set to 285 nm.
# (§4) Data represent average values from three separate measurements with standard deviation.
# [7] = system: LN-229 cells
# Text: as §1
# HPLC parameters are given in the materials and methods section and in the legend to FIG. 39. Data represent average values from 2 experiments in triplicate (n=6)±SD (SD values for some points are too small to be visible). […] To test this alternative interpretation, we collected conditioned medium from the LN-229 cells cultured for 72 hrs.
# [8] = 120 h
# [9] = system: LN-229 cells; settings: human, 24 h, 25 µM
# Description: as §2, §3, §4
# [10] = HPLC detection of FF to FA conversion in human blood; assay type: in vitro ADME; settings: 50 μM FF in human blood, 4 hours, 37° C.
# Text: as §1
# [11] = system: LN-229 cells; assay: Clonogenic assay; assay type: cell-based, human; settings: 12 days; drugs at 50 μM or wafer with 1 mg fenofibrate
# Description: CHLONOGENIC ASSAY. […] Control cells were treated with the vehicle (DMSO). […] All the conditions were tested in duplicate and each experiment was performed at least three times.
# [12] = system: COS-1 cells; assay: COS-1 proliferation with MMC-loaded PLGA films, 5-day culture, toluidine blue; assay type: cell-based; settings: MMC incorporated into the bulk PLGA film
# Description: CELL CULTURE AND RELEASE STUDY. For the dose response study, control samples (no drug) and MMC-containing samples were loaded into sterile 12-well plates. […] COS-1 cells (10^4 cells) were added to each well and the cells were incubated at 37° C. in a humidified 5% CO2-95% air atmosphere. The culture medium was replenished on day 3 and day 5 after the cells were plated. After 5 days of culture, the cell accumulation in each culture dish was assessed. The culture medium was removed and the cell layer was gently washed 3 times with 5 mL of phosphate-buffered saline (PBS). […] The amount of dye in each well was measured by the absorbance at 650 nm, which is equivalent to the number of cells, using UV-Visible spectrophotometer (Model UB-1601, Shimadzu scientific instruments Inc, Houston, Tex.).
# For the preliminary dose-response study, COS-1 cells (10^4 cells in 1 mL) were added to each well of a 12-well plate. […] After 5 days of culture, the cell accumulation in each culture dish was assessed by a modification of a previously described procedure (Leavesley D I, Ferguson G D, Wayner E A, et al. Requirement of the integrin beta 3 subunit for carcinoma cell spreading or migration on vitronectin and fibrinogen. J Cell Biol. 1992; 117:1101-1107.) Briefly, culture medium was removed and the cell layer was gently washed 2 times with 2 mL of phosphate-buffered saline (PBS). […]
# [13] = Stability of MMC in PBS and after spin-casting in PLGA-dichloromethane; assay type: physicochemical
# [14] = In vitro release of MMC from surface-loaded PLGA films into PBS; assay type: physicochemical; settings: films loaded with 1 and 5 μg MMC, absorbance at 364 nm
# Description: Aliquots (0.65 mL) of the PBS were removed at specific time intervals after immersion of the polymer samples, and absorbance was measured at 364 nm using a UV spectrophotometer (Shimadzu UV-1700 series). After measurement, the aliquots were returned to the vials to maintain constant volume and sink conditions.
# [15] = In vitro release of model drugs (salicylic acid, ibuprofen) from breath figure and non-porous PLGA and PEG/PLGA films in PBS; assay type: physicochemical; settings: PBS 37° C.
# Description: Ibuprofen and Salicylic acid were used as model drugs to characterize the release profiles of breath figure polymer films. The equivalent non-porous smooth films were used as controls. In vitro release studies were carried out by incubating 1.5 cm side square drug incorporated films in 15 ml of PBS medium at 37° C. and stirred gently using a magnetic stirrer. At specific time intervals, 0.650 ml aliquots of the solution was withdrawn and centrifuged to remove any possible debris from the degrading polymer. Then, the aliquot was returned to the vial after measuring the absorbance to quantify drug release. The pH of the medium was monitored during the course of the experiment to verify that the solution is buffered adequately during polymer degradation. Ibuprofen and salicylic acid release were quantified through the absorbance at 221 and 296 nm, respectively. Standard calibration plots of ibuprofen and salicylic acid absorbance were constructed to correlate absorbance with drug release levels. All experiments were conducted in triplicate.
# The release profile of breath figure PLGA and PEG/PLGA films was carried out in PBS medium (pH 7.4, 0.1M), incubated at 37° C. A non-porous film with the equivalent amount of drug dispersed was used as control. […] FIG. 14 illustrates the cumulative release of salicylic acid from the PLGA film and PEG/PLGA film, respectively, for a period of 2 days. […]
# [16] = blood, read-out: concentration in Blood
# [17] = urine, read-out: concentration in Urine
# [18] = mice, micronized fenofibrate 50 mg/kg/day oral, n = 4
# [19] = mice, micronized fenofibrate 50 mg/kg/day oral, n = 6
structure (smiles),measurement,setting,value
"O=c1[nH]cc(F)c(=O)[nH]1 [5-FU, 5-fluorouracil]",water solubility (in words),[1],highly water soluble
same,killing efficiency (percent of cells killed vs PLGA film without drug),"[2]; double-layered film with 0.1 mg 5-FU, samples from >15 days of incubation",about 75%
same,total incubation with culture medium until maximum cytotoxicity,[2]; double-layered film with 0.4 mg 5-FU,4 to 5 days
same,continuous release of drug after the lag phase,[3],21 days
same,duration of sharp increase in drug release after the delay,[3],10 days
same,lag period after the sharp release phase,[3],2 to 3 days
same,delay of the initial release by sealing,[3]; sealed top layer,3 to 5 days
same,burst effect in the first 24 hours of incubation,"[3]; sealed top layer, 0.1, 0.4, 2 mg 5-FU",no burst effect
"CC(C)(Oc1ccc(C(=O)c2ccc(Cl)cc2)cc1)C(=O)O [FA, fenofibric acid]",BBB permeability coefficient,[4],11.3 ×10⁻⁶ cm/s
same,concentration at 4 weeks,[5]; [16],3.33 µM
same,concentration at 4 weeks,[5]; [17],5.34 µM
same,concentration in Intracranial tumor,"[5]; mice with intracranial LN-229, micronized fenofibrate 50 mg/kg/day oral, n = 6",0 nmol/mg
same,concentration in Heart,[5]; [18],1.31 ± 1.4 nmol/mg
same,concentration in Spleen,[5]; [18],1.33 ± 1.1 nmol/mg
same,concentration in Brain,"[5]; mice, micronized fenofibrate 50 mg/kg/day oral, n = 5",0.06 ± 0.1 nmol/mg
same,concentration in Kidneys,[5]; [19],1.5 ± 0.8 nmol/mg
same,concentration in Liver,[5]; [19],11.35 ± 3.9 nmol/mg
same,concentration in Lungs,[5]; [19],0.36 ± 04 nmol/mg
same,amount in cytosolic fraction,[6],0.57 nmol
same,FA detected after FF incubation in filtered conditioned medium,[7],did not detect any traces
"CC(C)OC(=O)C(C)(C)Oc1ccc(C(=O)c2ccc(Cl)cc2)cc1 [FF, fenofibrate]",stability in culture medium,[8],at least 120 h
same,amount in cytosolic fraction,[9],2.40 nmol
same,concentration at 4 weeks,[5]; [16],0 µM
same,concentration at 4 weeks,[5]; [17],0 µM
same,time of maximal intracellular concentration,"[7]; human, 50 µM",24 h
same,decrease of FF peak in human blood,[10],about 5 fold
"Cc1ccc(C)c(OCCCC(C)(C)C(=O)O)c1 [Gemfibrozil, gemfibrozil]",inhibition of clonal growth of LN-229 cells,[11],not able to reproduce them
"CO[C@@]12[C@H](COC(N)=O)C3=C(C(=O)C(C)=C(N)C3=O)N1C[C@@H]1N[C@@H]12 [MMC, mitomycin C]",toxic effect of degraded products on COS-1 cells,[12],no toxic effect
same,loss of activity in PBS at 23 degrees C.,"[13]; 50 day incubation, 23 degrees C.",approximately 15%
same,loss of activity in PBS at 37 degrees C.,"[13]; 50 day incubation, 37 degrees C.",~50%
same,activity in PBS at 4 degrees C.,"[13]; 50 days, 4 degrees C.",retained its activity
same,loss of activity after dissolving in PLGA-dichloromethane and spin-casting,[13]; spin-cast PLGA film,100%
same,active drug released from the film,[14],20-40%
"Cc1cccc(Nc2cc(Cl)nc(SCC(=O)O)n2)c1C [Wy-14,643]",inhibition of clonal growth of LN-229 cells,[11],not able to reproduce them
CC(C)Cc1ccc(C(C)C(=O)O)cc1 (stereo not shown) [ibuprofen],water solubility,[1],< 500 µg/mL
same,duration of release from films,[15],at least 14 days
O=C(O)c1ccccc1O [salicylic acid],water solubility,[1],> 2000 µg/mL
